Laboratory results reported in ChEMBL document CHEMBL3352146, “Cytotoxic aaptamine derivatives from the South China Sea sponge Aaptos aaptos” (J Nat Prod, 2014).

Experiments:
K562 = test: Cytotoxicity against human K562 cells after 48 hrs by trypan blue exclusion method; type: functional, cell-based; conditions: K562, 48 h
HepG2 = test: Cytotoxicity against human HepG2 cells after 72 hrs by methylene blue assay; conditions: HepG2, 72 h
KB = test: Cytotoxicity against human KB cells after 72 hrs by methylene blue assay
[1] = Cytotoxicity against human HL60 cells after 48 hrs by trypan blue exclusion method; type: functional, cell-based; conditions: HL-60, 48 h
MCF7 = test: Cytotoxicity against human MCF7 cells after 72 hrs by methylene blue assay; conditions: MCF7, 72 h
HT-29 = test: Cytotoxicity against human HT-29 cells after 72 hrs by methylene blue assay; conditions: HT-29, 72 h

Row | SMILES | IC50 (K562) | IC50 (HepG2) | IC50 (KB) | IC50 [1] | IC50 (MCF7) | IC50 (HT-29)
1 | CCC(C)CNc1cnc2c3c(ccnc13)C=C(OC)C2=O (configuration not stated) | > 10 µg/mL | > 10 µg/mL | > 10 µg/mL | > 10 µg/mL | > 10 µg/mL | > 10 µg/mL
2 | COC1=Cc2ccnc3c(NCCc4ccccc4)cnc(c23)C1=O | 0.09 µM | 0.2 µM | 0.12 µM | 0.03 µM | 0.4 µM | 2.2 µM
3 | CCC(C)c1nc2c(=O)[nH]c3c(OC)c(OC)cc4ccn1c2c43 (configuration not stated) | > 10 µg/mL | > 10 µg/mL | > 10 µg/mL | > 10 µg/mL | > 10 µg/mL | > 10 µg/mL
4 | COC1=Cc2ccnc3c4c(nc(c23)C1=O)CCCN4 | > 10 µg/mL | > 10 µg/mL | > 10 µg/mL | > 10 µg/mL | > 10 µg/mL | > 10 µg/mL
5 | CC(=O)O[C@H]1C(=O)[C@@]2(C)[C@H]([C@H](OC(=O)c3ccccc3)[C@]3(O)C[C@H](OC(=O)[C@H](O)[C@@H](NC(=O)c4ccccc4)c4ccccc4)C(C)=C1C3(C)C)[C@]1(OC(C)=O)CO[C@@H]1C[C@@H]2O [PACLITAXEL] | 0.0024 µM | 0.0027 µM | – | 0.0015 µM | 0.0032 µM | 0.0035 µM
6 | CCOC(=O)CCCNc1cnc2c3c(ccnc13)C=C(OC)C2=O | > 10 µg/mL | > 10 µg/mL | > 10 µg/mL | > 10 µg/mL | > 10 µg/mL | > 10 µg/mL
7 | CCOC1=Nc2c(N)c(OC)cc3ccnc(c23)C1=O | 0.22 µM | 0.6 µM | 0.66 µM | 0.11 µM | 1.2 µM | 6.6 µM
8 | COc1cc2ccn3c(CC(C)C)nc4c(=O)[nH]c(c1OC)c2c43 | > 10 µg/mL | > 10 µg/mL | > 10 µg/mL | > 10 µg/mL | > 10 µg/mL | > 10 µg/mL
9 | CNc1cnc2c3c(ccnc13)C=C(OC)C2=O | > 10 µg/mL | > 10 µg/mL | > 10 µg/mL | > 10 µg/mL | > 10 µg/mL | > 10 µg/mL
10 | COC1=Cc2ccnc3c(NCC(C)C)cnc(c23)C1=O | 0.46 µM | 1 µM | 1.1 µM | 0.28 µM | 2.3 µM | 8.5 µM
11 | CCOc1nc2c(=O)[nH]c3c(OC)c(OC)cc4ccn1c2c43 | > 10 µg/mL | > 10 µg/mL | > 10 µg/mL | > 10 µg/mL | > 10 µg/mL | > 10 µg/mL
12 | COC1=Cc2ccnc3c(NCCC(C)C)cnc(c23)C1=O | 0.09 µM | 0.17 µM | 0.11 µM | 0.03 µM | 0.44 µM | 1.8 µM
13 | COc1cc2ccn3c(C(C)C)nc4c(=O)[nH]c(c1OC)c2c43 | > 10 µg/mL | > 10 µg/mL | > 10 µg/mL | > 10 µg/mL | > 10 µg/mL | > 10 µg/mL
